Results published in patent US8648076B2, “Cysteine protease inhibitors and their therapeutic applications” (Hybrigenics SA, priority 2005, dated 2014).
pIC50: −log10 of the molar value. Like-named read-outs stand apart in the source and are kept apart here.

Tests used:
[1] = tested on: HCT116 colon cancer cells; assay: HCT116 cell viability and proliferation assay (MTS); type: cell-based; details: Homo sapiens, read-out: HCT116 D3 GI50
USP5 = target: T1, USP5 (Homo sapiens, UniProt P45974); assay: USP5 activity assay; type: biochemical; details: 400 nM Ub-AMC, 300 pM enzyme, 30 min pre-incubation at 25° C., 60 min at 37° C.; sigmoidal fit; AF: Autofluorescent; read-out: USP 5 (inhibition of cysteine protease activity)
T1 sequence (P45974 1-858): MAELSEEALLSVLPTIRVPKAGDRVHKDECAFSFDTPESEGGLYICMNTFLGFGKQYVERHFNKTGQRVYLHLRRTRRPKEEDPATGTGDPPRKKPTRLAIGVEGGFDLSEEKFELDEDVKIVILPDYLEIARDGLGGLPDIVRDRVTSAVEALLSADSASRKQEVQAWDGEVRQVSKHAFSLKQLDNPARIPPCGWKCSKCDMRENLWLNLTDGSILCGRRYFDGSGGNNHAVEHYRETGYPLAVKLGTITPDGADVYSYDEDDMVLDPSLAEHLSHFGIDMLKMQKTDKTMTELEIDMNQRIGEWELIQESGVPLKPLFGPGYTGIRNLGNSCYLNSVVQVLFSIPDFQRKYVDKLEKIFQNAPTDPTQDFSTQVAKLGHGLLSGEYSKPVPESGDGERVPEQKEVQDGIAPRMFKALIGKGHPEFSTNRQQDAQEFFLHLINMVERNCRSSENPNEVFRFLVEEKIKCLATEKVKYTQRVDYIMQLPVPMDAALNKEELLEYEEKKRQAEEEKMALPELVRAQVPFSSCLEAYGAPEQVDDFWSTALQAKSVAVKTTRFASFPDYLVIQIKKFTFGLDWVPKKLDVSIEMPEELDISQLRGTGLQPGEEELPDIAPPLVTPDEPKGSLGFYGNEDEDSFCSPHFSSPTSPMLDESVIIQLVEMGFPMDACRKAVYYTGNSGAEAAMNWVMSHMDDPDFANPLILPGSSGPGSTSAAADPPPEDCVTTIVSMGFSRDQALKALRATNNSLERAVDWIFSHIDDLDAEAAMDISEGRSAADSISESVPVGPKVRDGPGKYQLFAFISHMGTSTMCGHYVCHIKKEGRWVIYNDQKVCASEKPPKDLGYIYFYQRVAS
Protocol: Bovine Serum Albumin 0.05 mg·ml^−1 pH7.6). Compounds stocks (100 mM) were stored at −20° C. in DMSO. […] Reactions were performed as duplicates in Black LJL 96 well plates (HE microplates; Molecular Devices; 20 μl final reaction volume). The substrate concentration for USP5 was 400 nM Ub-AMC (Boston Biochem). The concentrations of the enzyme (USP5) in specificity assays was 300 pM. The concentrations were determined in order to perform specificity assays under initial velocities at fixed substrate concentration. Compounds were pre-incubated with enzymes for 30 minutes at 25° C. Reactions were initiated by addition of substrate to the plates containing the enzymes (+/− compounds) diluted in assay buffer. Reactions were incubated for 60 minutes at 37° C. Reactions were stopped by adding acetic acid (100 mM final). Readings were performed on a Pherastar Fluorescent Reader (BMG). λ Emission 380 nm; λ Excitation=460 nm. Data (mean values +/− standard deviation) were analyzed as % of control (no compound) and plotted as percentage versus the Log of the compound concentration using GraphPad (Prism). Data were fitted to a sigmoidal model (variable slope).

[2] = tested on: PC-3 prostate cancer cells; assay: PC3 cell viability and proliferation assay (MTS); type: cell-based; details: Homo sapiens, PC-3, 72 h, read-out: PC3 D3 GI50
USP7 = target: T2, USP7 (Homo sapiens, UniProt Q93009); assay: USP7 activity assay; type: biochemical
T2 construct: His tag (from pFastBac-HT vector) (N); made in house; host or cells: insect cells (Sf9 or High Five), baculovirus

Uch-L3 = target: T3, Uch-L3 (Homo sapiens, UniProt P15374); assay: UCH-L3 activity assay; type: biochemical; details: 400 nM Ub-AMC, 13 pM enzyme, 30 min pre-incubation at 25° C., 60 min at 37° C.; sigmoidal fit; AF: Autofluorescent; read-out: Uch-L3 (inhibition of cysteine protease activity)
T3 sequence (P15374 1-230): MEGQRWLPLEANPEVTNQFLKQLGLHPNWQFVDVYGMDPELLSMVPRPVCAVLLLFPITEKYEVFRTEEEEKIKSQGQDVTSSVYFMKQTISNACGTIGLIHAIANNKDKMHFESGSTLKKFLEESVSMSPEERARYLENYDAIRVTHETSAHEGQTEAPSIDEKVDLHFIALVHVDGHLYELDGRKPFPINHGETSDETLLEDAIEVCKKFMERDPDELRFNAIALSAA
Outline: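 Compounds were pre-incubated with 13 pM Uch-L3 for 30 min at 25° C in pH 7.6 buffer with 0.05 mg/ml BSA. Reactions ran 60 min at 37° C with 400 nM Ub-AMC, were stopped with 100 mM acetic acid, and AMC fluorescence was read. Duplicates were expressed as % of no-compound control and fitted to a variable-slope sigmoid.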

[3] = HCT-116, HCT116 cells, 72 hours incubation, MTS, mean of 3 independent experiments
[4] = PC3 cells, 72 hours incubation, MTS, mean of 3 independent experiments
[5] = 400 nM Ub-AMC, 152 pM enzyme, 30 min pre-incubation at 25° C., 60 min at 37° C., sigmoidal fit, read-out: USP 7 (inhibition of cysteine protease activity)

T2 sequence (Q93009 whole entry): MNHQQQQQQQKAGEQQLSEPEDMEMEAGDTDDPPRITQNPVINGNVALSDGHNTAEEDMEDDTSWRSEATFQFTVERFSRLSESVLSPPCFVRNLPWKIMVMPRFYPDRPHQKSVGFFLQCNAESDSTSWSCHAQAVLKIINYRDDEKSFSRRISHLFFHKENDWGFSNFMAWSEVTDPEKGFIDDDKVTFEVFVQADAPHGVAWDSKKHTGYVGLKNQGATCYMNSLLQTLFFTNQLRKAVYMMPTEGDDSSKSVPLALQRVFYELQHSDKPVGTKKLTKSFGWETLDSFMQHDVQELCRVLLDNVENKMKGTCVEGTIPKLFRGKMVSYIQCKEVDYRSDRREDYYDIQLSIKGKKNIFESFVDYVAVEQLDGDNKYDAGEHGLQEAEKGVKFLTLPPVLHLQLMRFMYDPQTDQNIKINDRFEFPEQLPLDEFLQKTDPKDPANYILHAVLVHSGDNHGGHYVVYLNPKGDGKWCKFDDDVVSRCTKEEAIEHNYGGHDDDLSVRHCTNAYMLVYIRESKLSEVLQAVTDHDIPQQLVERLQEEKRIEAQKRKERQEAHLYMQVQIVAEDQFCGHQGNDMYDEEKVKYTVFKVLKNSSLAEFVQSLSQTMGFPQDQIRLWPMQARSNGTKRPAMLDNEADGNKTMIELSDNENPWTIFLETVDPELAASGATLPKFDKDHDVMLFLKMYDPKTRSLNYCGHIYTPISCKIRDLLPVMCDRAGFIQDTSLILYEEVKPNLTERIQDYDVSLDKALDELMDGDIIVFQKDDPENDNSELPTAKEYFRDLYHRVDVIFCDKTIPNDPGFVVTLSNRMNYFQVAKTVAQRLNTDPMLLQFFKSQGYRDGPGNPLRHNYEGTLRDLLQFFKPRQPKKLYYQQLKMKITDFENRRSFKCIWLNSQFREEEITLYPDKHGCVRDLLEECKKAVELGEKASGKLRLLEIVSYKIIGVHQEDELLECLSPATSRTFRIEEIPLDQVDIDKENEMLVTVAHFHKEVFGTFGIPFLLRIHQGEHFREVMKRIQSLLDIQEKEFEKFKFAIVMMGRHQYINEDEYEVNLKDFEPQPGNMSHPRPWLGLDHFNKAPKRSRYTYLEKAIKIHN

| SMILES | GI50 ([1]; HCT-116, 72 h) [nM] | pIC50 (USP5) | GI50 [2] [nM] | pIC50 (USP7) | pIC50 (Uch-L3) | GI50 [1, 3] [nM] | GI50 [2, 4] [nM] | pIC50 (USP7; [5]) |
| --- | --- | --- | --- | --- | --- | --- | --- | --- |
| CON=C1c2ccccc2-c2nc(C(N)=O)c(C#N)nc21 [Example 34d, 2-Cyano-9-methoxyimino-9H-indeno[1,2-b]pyrazine-3-carboxylic acid amide] | 916 | 6.95 | 1200 | 6.40 | 7.43 |  |  |  |
| N#Cc1nc2c(nc1O)-c1ccc(Cl)cc1C2=O [Example 42, 7-chloro-3-hydroxy-9-oxo-9H-indeno[1,2-b]pyrazine-2-carbonitrile] | > 10000 | < 4.00 | > 10000 | < 4.00 | < 4.00 |  |  |  |
| N#Cc1nc2c(nc1N)-c1ccccc1C2=O [Example 7, 3-amino-9-oxo-9H-indeno[1,2-b]pyrazine-2-carbonitrile] |  | < 4.00 |  |  | 4.28 | > 10000 | > 10000 | < 4.00 |
| N#Cc1nc2c(nc1C#N)-c1cc(Cl)c(Cl)cc1C2=O [Example 31, 6,7-dichloro-9-oxo-9H-indeno[1,2-b]pyrazine-2,3-dicarbonitrile] | 753 | 6.48 | 2430 | 6.23 | 6.98 |  |  |  |
| N#Cc1nc2c(nc1C#N)-c1ccc(O)cc1C2=O [Example 17j, 7-Hydroxy-9-oxo-9H-indeno[1,2-b]pyrazine-2,3-dicarbonitrile] |  | < 4.00 |  |  | 5.10 | > 10000 | > 10000 | 4.18 |
| COc1ccc2c(c1)C(=O)c1nc(C#N)c(C#N)nc1-2 [Example 17i, 7-Methoxy-9-oxo-9H-indeno[1,2-b]pyrazine-2,3-dicarbonitrile] |  | 4.64 |  |  | 5.51 | 560 | 1270 | < 4.00 |
| COc1ccc2c(c1OC)C(=O)c1nc(C#N)c(C#N)nc1-2 [Example 17d, 7,8-Dimethoxy-9-oxo-9H-indeno[1,2-b]pyrazine-2,3-dicarbonitrile] |  | 5.60 |  |  | 6.11 | 680 | 910 | 4.74 |
| COc1cc2c(cc1OC)-c1nc(C#N)c(C#N)nc1C2=O [Example 17b, 6,7-Dimethoxy-9-oxo-9H-indeno[1,2-b]pyrazine-2,3-dicarbonitrile] |  | < 4.00 |  |  | 5.27 | 530 | 920 | 4.99 |
| COCCOc1nc2c(nc1C#N)C(=O)c1ccccc1-2 [Example 5, 3-(2-methoxy-ethoxy)-9-oxo-9H-indeno[1,2-b]pyrazine-2-carbonitrile] |  | < 4.00 |  |  | 4.62 | > 10000 | > 10000 | < 4.00 |
| COc1ccc2c(c1)-c1nc(C#N)c(C#N)nc1C2=O [Example 17a, 6-Methoxy-9-oxo-9H-indeno[1,2-b]pyrazine-2,3-dicarbonitrile] |  | 4.54 |  |  | 5.15 | 610 | 1400 | < 4.00 |
| N#Cc1nc2c(nc1C#N)-c1ccc(Cl)cc1C2=O [Example 17g, 7-Chloro-9-oxo-9H-indeno[1,2-b]pyrazine-2,3-dicarbonitrile] |  | 6.80 |  |  | 7.15 | 320 | 1110 | 6.28 |
| CCc1ccc2c(c1)-c1nc(C#N)c(C#N)nc1C2=O [Example 32, 6-ethyl-9-oxo-9H-indeno[1,2-b]pyrazine-2,3-dicarbonitrile] | 385 | 5.78 | 1430 | 5.59 | 6.59 |  |  |  |
| N#Cc1nc2c(nc1C#N)-c1ccccc1C2=NO [Example 12, 9-[hydroxyimino]-9H-indeno[1,2-b]pyrazine-2,3-dicarbonitrile] |  | 4.35 |  |  | 5.89 | 6500 | 4400 | < 4.00 |
| COc1ccc(OC)c2c1C(=O)c1nc(C#N)c(C#N)nc1-2 [Example 17f, 5,8-Dimethoxy-9-oxo-9H-indeno[1,2-b]pyrazine-2,3-dicarbonitrile] |  | 5.48 |  |  | 6.22 | 930 | 800 | 4.90 |
| N#Cc1nc2c(nc1C(N)=O)-c1ccccc1/C2=N\O [Example 11, 2-cyano-9-[hydroxyimino]-9H-indeno[1,2-b]pyrazine-3-carboxylic acid amide] |  | 5.68 |  |  | 6.22 | 1600 | 1240 | 4.89 |
| N#Cc1nc2c(nc1C#N)-c1ccccc1C2=O [Example 1, 9-oxo-9H-indeno[1,2-b]pyrazine-2,3-dicarbonitrile] |  | 5.89 |  |  | 6.12 | 150 | 610 | 5.46 |
| N#Cc1nc2c(nc1C#N)-c1ccc(Cl)cc1C2=NNC(N)=O [Example 43, 9-[(aminocarbonyl)hydrazono]-7-chloro-9H-indeno[1,2-b]pyrazine-2,3-dicarbonitrile] | 512 | < 4.00 | 655 | < 4.00 | 4.87 |  |  |  |
| Cc1ccc2c(c1)-c1nc(C#N)c(C#N)nc1C2=O [Example 17e, 6-Methyl-9-oxo-9H-indeno[1,2-b]pyrazine-2,3-dicarbonitrile] |  | 5.11 |  |  | 5.68 | 300 | 1320 | 5.14 |
| Cc1c(F)ccc2c1C(=O)c1nc(C#N)c(C#N)nc1-2 [Example 30, 7-Fluoro-8-methyl-9-oxo-9H-indeno[1,2-b]pyrazine-2,3-dicarbonitrile] |  | 5.79 |  |  | 6.47 | 705 | 854 | 5.65 |
